Reference: article PMC10094921, “A Lipidated Single-B-Chain Derivative of Relaxin Exhibits Improved In Vitro Serum Stability without Altering Activity” (International Journal of Molecular Sciences, 2023)
Residues, ends and D or L forms follow the SMILES beside them. No end group written: not given here. *: point of attachment. Palmitoyl = CCCCCCCCCCCCCCCC(=O)*

Experiments:
[1] = tested on: cyclic adenosine monophosphate (cAMP); conditions: in fibroblasts; cited from earlier work
Excerpt: (§1) The human gene-2 relaxin peptide (H2 relaxin) was discovered as a hormone of reproduction. The actions of H2 relaxin during pregnancy are pleiotropic, including strong antifibrotic, angiogenic, vasodilatory, antiapoptotic, and anti-inflammatory effects. These effects are mediated through the activation of the G protein-coupled receptor, Relaxin Family Peptide Receptor 1 (RXFP1), the native receptor for H2 relaxin [5]. However, H2 relaxin also has a high affinity for, and potency on, the related Relaxin Family Peptide Receptor 2 (RXFP2, a cognate receptor for INSL3 [6]) ...

[2] = tested on: heart fibrosis, lung fibrosis; conditions: rat vs. mouse; cited from earlier work
Excerpt: as §1

pERK pathway = conditions: in fibroblasts; cited from earlier work
Excerpt: as §1

[3] = tested on: BJ3 human dermal myofibroblasts; test: Myofibroblast differentiation in vitro (α-SMA expression, Western blot); type: cell-based
Protocol: 3.8. Determination of the Effects of Lipidated (L)-B7-33 on Myofibroblast Differentiation In Vitro
To determine if the lipidation of B7-33 prolonged its ability to suppress myofibroblast differentiation in vitro, the effects of the native B7-33 peptide vs. lipidated (L)-B7-33 were compared in BJ3 cells, a human dermal fibroblast cell line. BJ3 fibroblasts were used between passages 15–18 and cultured as described before. […] BJ3 cells were plated in 12-well plates at a density of 1–1.25 × 10^5 cells per well and were then either left untreated or stimulated with transforming growth factor (TGF)-β1 (T; 2 ng/mL) alone (to promote myofibroblast differentiation) or with T + B7-33 (100 ng/mL) or T + L-B7-33 (100 ng/mL) for a 14-day period, in media that was left unchanged over this time period. The cells from duplicate wells per treatment group were isolated from plates at 3-, 5-, 7-, 10- and 14-days post-T ± peptide treatment and extracted for protein using the RIPA lysis buffer (ThermoFisher Scientific; Scoresby, Victoria, Australia). These experiments were performed six independent times.
Half the cell protein (in 10 μL of RIPA buffer) from each sample (that was fully reconstituted in 20 μL of RIPA buffer) was loaded and electrophoresed in separate mini-protean 4–15% precast gels, and analyzed by Western blotting using a primary monoclonal antibody to α-SMA (42 kDa; M0851; […]; Agilent Technologies, Santa Clara, CA, USA). The equivalent loading of protein between samples was confirmed using a rabbit monoclonal glyceraldehyde 3-phosphate dehydrogenase (GAPDH) housekeeping antibody (37 kDa; 2118; 1:1000 dilution; Cell Signaling Technology; Danvers, MA, USA). Each membrane was then subjected to appropriate anti-mouse (7076) or anti-rabbit (7074) horseradish peroxidase-conjugated secondary antibodies (both at a 1:2000 dilution; Cell Signaling Technologies), before proteins were detected using the Clarity Western ECL substrate detection kit and quantified by densitometry with a ChemiDoc MP Imaging System and Image Lab v.6.0 software (both from Bio-Rad Laboratories, Hercules, CA, USA).The density of α-SMA from each sample was corrected for GAPDH protein levels and then expressed relative to the ratio that was measured from the unstimulated control group, which was expressed as 1 in each case. Representative blots of α-SMA and GAPDH were also chosen for presentation in each case.

[4] = In vitro serum stability assay; type: in vitro ADME, human; conditions: 37 °C
Protocol: 3.7. In Vitro Serum Stability Assay
A total of 400 µL of human serum was taken, and 200 µg peptide dissolved in 100 µL of water was added to human serum at 37 °C. A total of 80 µL of samples was removed at various time points (0 min, 30 min, 60 min, 120 min, 240 min, and 480 min), and 160 µL of acetonitrile was added to precipitate plasma proteins. The solution was then centrifuged at 12,000 rpm for 15 min at 4 °C. A total of 200 µL of supernatant was taken out and mixed with 240 µL of milli-Q water, and each sample was analyzed by RP-HPLC (2 × 80 μL injection), by measuring the area under the peak at the appropriate retention time compared to the peak area of the peptide at time zero minute (100%). Data analysis (n = 3, duplicate) was performed using Prism Version 8.0.2, a non-linear-fit one-phase decay model.

[5] = biological target: T1, 7BP protein (RXFP1 extracellular domain attached with a single TM domain) (Homo sapiens, UniProt Q9HBX9); test: Eu-H2 relaxin competition binding in HEK-7BP cells, BSA free; conditions: HEK-293T cells stably expressing 7BP, BSA excluded from buffer, mean ± SEM, n in brackets, one-site fit, read-out: HEK-7BP Binding B.S.A. Free Eu-H2 pKi (n) (converted)
T1 construct: RXFP1 extracellular domain attached with a single TM domain instead of the native 7 TM domain; single transmembrane domain replacing the native 7 TM domain (heterologous); expressed in transfected cells; host or cells: HEK-293T cells stably expressing 7BP (HEK-7BP)
T1 sequence (Q9HBX9 1-409 limits assumed): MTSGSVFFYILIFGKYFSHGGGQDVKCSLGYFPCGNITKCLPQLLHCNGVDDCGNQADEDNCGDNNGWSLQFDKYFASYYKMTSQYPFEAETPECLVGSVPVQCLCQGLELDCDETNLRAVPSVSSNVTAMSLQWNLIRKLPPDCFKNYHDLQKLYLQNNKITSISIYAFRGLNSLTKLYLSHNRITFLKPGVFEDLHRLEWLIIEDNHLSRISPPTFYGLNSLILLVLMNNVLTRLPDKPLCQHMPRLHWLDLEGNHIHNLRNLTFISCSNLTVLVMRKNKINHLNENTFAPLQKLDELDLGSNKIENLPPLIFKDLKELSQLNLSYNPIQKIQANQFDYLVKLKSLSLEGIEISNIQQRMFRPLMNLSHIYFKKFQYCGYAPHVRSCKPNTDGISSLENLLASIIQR
Protocol: 3.6. HEK-7BP Binding Assays
HEK-293T cells stably expressing the 7BP protein (HEK-7BP; RXFP1 extracellular domain attached with a single TM domain instead of the native 7 TM domain [30]) were plated in 96-well plates. The medium was aspirated off, and the cells were washed with phosphate-buffered saline (PBS) before competition binding assays were performed with Eu-H2 Relaxin (RXFP1 ligand), as previously described, with the only difference being that BSA was excluded from the binding assay buffer. Competition binding curves for each peptide were performed in triplicate, and each experiment was performed independently at least three times. Fluorescent measurements were carried out on a BMG POLARstar plate reader (BMG Labtech, Melbourne, Australia). Pooled data are presented as mean ± SE of specific binding and are fitted using a one-site binding curve in GraphPad Prism version 8 (GraphPad Inc., San Diego, CA, USA). Statistical analyses were conducted using a one-way analysis of variance with uncorrected Fisher’s least significant difference (LSD) post-hoc analysis in GraphPad Prism version 8.

[6] = human serum 400 µL + 200 µg peptide in 100 µL water, samples 0-480 min, acetonitrile precipitation, RP-HPLC peak area vs time zero, one-phase decay fit, n = 3, duplicate

With “VIKLSGRELVRAQIAISGMSTWSKRSL-NH2 [Analogue B7-33]” as the molecule, how does the cAMP activation [1] read?
The cAMP activation was “barely activate”.

And the “effect on fibrosis in animal models” value [2]?
Its value is “reversed or resolved fibrosis”.

And the “pERK pathway activation potency” value (pERK pathway)?
The value was “potency similar to H2 relaxin”.

And the “α-SMA expression levels versus T-alone-stimulated cells, in words” value ([3]; peptide 100 ng/mL + T 2 ng/mL, after 5–14 days of culture)?
Its value is “fully returned to those measured for T-alone-stimulated cells”.

What about the “suppression of TGF-α-induced increase in α-SMA expression” value ([3]; peptide 100 ng/mL co-administered with T (2 ng/mL), after 72 h of culture, 0.5% FCS, n = 6 in duplicate) of the same molecule?
The value was “almost fully suppressed”.

And the half-life at 400 µg/mL [4, 6]?
Its half-life at 400 µg/mL is roughly 6 min.

And the “in vitro half-life in serum” value [4, 6]?
The value was 6 min.

And the “in vitro serum stability, in words” value ([4]; human serum, RP-HPLC, n = 3 independent experiments)?
The value was “degrades within minutes”.

Which Ki [5] does the source give for `CCCCCCCCCCCCCCCC(=O)NCCCC[C@H](NC(=O)[C@H](CCC(=O)O)NC(=O)[C@H](Cc1ccc(O)cc1)NC(=O)[C@@H](N)CCC(=O)O)C(=O)N[C@@H](CCC(=O)O)C(=O)N[C@@H](Cc1ccc(O)cc1)C(=O)N[C@@H](CCC(=O)O)C(=O)N[C@H](C(=O)N[C@H](C(=O)N[C@@H](CCCCN)C(=O)N[C@@H](CC(C)C)C(=O)N[C@@H](CO)C(=O)NCC(=O)N[C@@H](CCCNC(=N)N)C(=O)N[C@@H](CCC(=O)O)C(=O)N[C@@H](CC(C)C)C(=O)N[C@H](C(=O)N[C@@H](CCCNC(=N)N)C(=O)N[C@@H](C)C(=O)N[C@@H](CCC(N)=O)C(=O)N[C@H](C(=O)N[C@@H](C)C(=O)N[C@H](C(=O)N[C@@H](CO)C(=O)NCC(=O)N[C@@H](CCSC)C(=O)N[C@@H](CO)C(=O)N[C@H](C(=O)N[C@@H](Cc1c[nH]c2ccccc12)C(=O)N[C@@H](CO)C(=O)N[C@@H](CCCCN)C(=O)N[C@@H](CCCNC(=N)N)C(=O)N[C@@H](CO)C(=O)N[C@@H](CC(C)C)C(N)=O)[C@@H](C)O)[C@@H](C)CC)[C@@H](C)CC)C(C)C)[C@@H](C)CC)C(C)C` [Tag-B7-33] (H-EYEK(Palmitoyl)EYEVIKLSGRELVRAQIAISGMSTWSKRSL-NH2) here?
The Ki was greater than 10 µM.
